Starred links: 1 amine or outer side, 2 acyl side, 3 side chain; linkers in the order of their positions; H or OH if unused. Residues, ends and D or L forms follow the SMILES beside them. Groups on a side chain read outwards from the residue. *: point of attachment. C20 diacid = O=C(O)CCCCCCCCCCCCCCCCCCC(=O)*; γGlu = O=C(O)[C@H](CCC(=O)[*:2])N[*:1]; AEEA = NCCOCCOCC(=O)O
Tests used:
[1] = Myocardial ischemia (LAD ligation) model in rats; type: in vivo; conditions: MI rats; for Heart rate / Mean blood pressure: anesthetized, prior to termination
Text: Wistar male rats were obtained from JanVier (Janvier Labs, France) at 6 weeks of age. The animals were pair-housed. During the study, animals had free access to food (RM1, SDS Dietex) and drinking water ad libitum.
Myocardial infarction (MI) was induced by chronic left anterior descending coronary artery (LAD) ligation performed at day zero. Sham operated animals were subjected to the same protocol; after the left lateral thoracotomy exposing the heart, the rib cage was closed without passing the suture thread around LAD.
Treatments started at 1-month post-MI, in order to assess the potential beneficial effect of the candidate compound to prevent the progression of the pathology.
Rats underwent transthoracic echocardiographic (ECG) examination in order to assess cardiac morphology and function in a noninvasively way. Echocardiography was performed by using a digital ultrasound system (Vivid S60, GE Medical Systems) equipped with a 12 MHz phased-array and an 18 MHz linear-array transducer. Standard B-mode (Brightness-mode) and M-mode (Motion-mode) images of the heart were obtained in the two-dimensional (2D) parasternal long axis view (PSLA). LV parameters were measured and calculated as the mean of 3 consecutive cardiac cycles by a single blinded trained operator.
A total of four ECG exams were performed for all the animals. The first examination took place 5-7 days after surgery and was used as a control of the surgery. The second ECG was performed 1 month after LAD ligation. Based on the second ECG, MI rats included were randomized in […] homogeneous groups based on the left ventricular internal diameter in diastole (LVIDd), telediastolic (TeleD) volume, ejection fraction (EF) and fractional shortening (FS): Group 1 (Sham): n=10, group 2 (MI/Vehicle): n=19, group 3 (MI/Atenolol-Lisinopril-Spironolactone (A+L+S) 1-1-10 mg/kg): n=19, group 4 (MI/test peptide 30 nmol/kg): n=19 and group 5 (MI/test peptide 100 nmol/kg): n=19. Vehicle and test peptide were administrated daily SC and A+L+S were dosed through drinking water. The third and fourth ECG were done 2 and 3 months after surgery, and were used to assess the cardiac remodelling and function following MI. At the fourth ECG isovolumic relaxation time (IVRT) and cardiac output (CO) were also assessed by Doppler-echocardiography.
Prior to termination, hemodynamic measurements were performed under anaesthesia using a fluid-filled catheter (BLPR and TBM4m, World Precision Instrument). At termination, left soleus was dissected and weighed.
Statistical analyses were performed with the Graphpad 9 software. If values were normally distributed, a parametric analysis was performed. If samples were drawn from non-normal populations, a non-parametric analysis was performed. First, differences were assessed between Sham and MI/Vehicle using a t-test. Then, the treated MI groups were compared to MI/Vehicle using a one-way ANOVA followed by the appropriate post-hoc test.

[2] = Telemetry in Spontaneously Hypertensive Rats; type: in vivo; conditions: for Heart rate / Mean arterial pressure: rats
Text: Blood pressure and heart rate were monitored in freely moving conscious animals by […] (DSI Data Science International, MN, USA). Female adult hypertensive rats (SHR) were implanted with transmitters. After shaving the abdominal wall, a midline abdominal incision was made, and the fluid-filled sensor catheter was inserted upstream into the exposed descending aorta between the iliac bifurcation and the renal arteries. According to the DSI guidelines the tip of the telemetric catheter was located just caudal to the renal arteries and secured by tissue adhesive. The transmitter body was affixed to the inner peritoneal - 3 - wall before closure of abdomen. A two-layer closure of the abdominal incision was used, with individual suturing of the peritoneum and the muscle wall followed by closure of the outer skin. Surgery was performed under aseptic conditions. For postsurgical protection against infections and pain a single dosage of an antibiotic (Ursocyclin 10% pro inj., Serumwerk, s.c.) and analgesic were injected (Rimadyl®, 4 mg/kg s.c., Pfizer, Germany). All animals were single-housed at 22-24°C ambient temperature and maintained on a 12/12 h dark-light cycle with free access to standard laboratory rat chow and water ad libitum.
All animals were treated with daily s.c. doses of vehicle or SEQ ID NO: 3, (10 or 30 nmol/kg) for 7 days (1 ml/kg). Drug administration took place at 9.00 a.m. (= 0 hours). For analysis, data were grouped to provide half-hourly averages.
For statistical analysis, 24 hours means were calculated starting from time of dosing. All data were evaluated using a 2-way ANOVA with Dunnett's test.

[3] = 2 months of treatment, 30 nmol/kg, ± SEM
[4] = 2 months of treatment, 100 nmol/kg, ± SEM
[5] = 2 months of treatment, compared to MI/Vehicle
[6] = SHR rats, daily s.c. 10 or 30 nmol/kg for 7 days

CC[C@H](C)[C@H](N)C(=O)N[C@H](C(=O)N[C@@H](CC(C)C)C(=O)N[C@@H](CO)C(=O)N[C@@H](CC(C)C)C(=O)N[C@@H](CC(=O)O)C(=O)N[C@H](C(=O)N1CCC[C@H]1C(=O)N[C@H](C(=O)NCC(=O)N[C@@H](CC(C)C)C(=O)N[C@@H](CC(C)C)C(=O)N[C@@H](CCC(N)=O)C(=O)N[C@H](C(=O)N[C@@H](CC(C)C)C(=O)N[C@@H](CC(C)C)C(=O)N[C@@H](CCC(=O)O)C(=O)N[C@@H](CCC(N)=O)C(=O)N[C@@H](C)C(=O)N[C@@H](CCCNC(=N)N)C(=O)N[C@@H](C)C(=O)N[C@@H](CCCNC(=N)N)C(=O)N[C@@H](C)C(=O)N[C@@H](C)C(=O)N[C@@H](CCCNC(=N)N)C(=O)N[C@@H](CCC(=O)O)C(=O)N[C@@H](CCC(N)=O)C(=O)N[C@@H](C)C(=O)N[C@@H](CCCCNC(=O)COCCOCCNC(=O)COCCOCCNC(=O)CC[C@H](NC(=O)CC[C@H](NC(=O)CCCCCCCCCCCCCCCCCCC(=O)O)C(=O)O)C(=O)O)C(=O)N[C@H](C(=O)N[C@@H](CC(N)=O)C(=O)N[C@@H](C)C(=O)N[C@@H](CCC(=O)O)C(=O)N[C@H](C(=O)N[C@@H](CC(C)C)C(=O)N[C@@H](C)C(=O)N[C@@H](CCC(=O)O)C(=O)N[C@H](C(N)=O)C(C)C)[C@@H](C)CC)[C@@H](C)O)[C@@H](C)CC)[C@@H](C)CC)C(C)C)C(C)C [SEQ ID NO: 3] (H-IVLSLDVPIGLLQILLEQARARAAREQAK([AEEA-AEEA-γGlu-γGlu-C20 diacid])TNAEILAEV-NH2)
Body weight at termination ([1]; 30 nmol/kg, ± SEM): 550.1 ± 10.6 g | Left soleus mass ([1]; 30 nmol/kg, ± SEM): 274.9 ± 9.9 mg | Body weight at termination ([1]; 100 nmol/kg, ± SEM): 551.6 ± 6.7 g | Left soleus mass ([1]; 100 nmol/kg, ± SEM): 275.2 ± 6.8 mg | CO [1, 3]: 129.0 ± 5.1 mL/min | EF B-mode [1, 3]: 45.52 ± 1.2 % | EF M-mode [1, 3]: 46.42 ± 1.2 % | FS [1, 3]: 20.63 ± 0.5 % | IVRT [1, 3]: 21.81 ± 0.5 ms | LVIDd [1, 3]: 10.86 ± 0.2 mm | LVIDs [1, 3]: 8.63 ± 0.2 mm | LVPWd [1, 3]: 1.84 ± 0.04 mm | LVPWs [1, 3]: 2.94 ± 0.05 mm | SV [1, 3]: 0.41 ± 0.01 mL | CO [1, 4]: 125.4 ± 3.8 mL/min | EF B-mode [1, 4]: 45.55 ± 0.7 % | EF M-mode [1, 4]: 46.22 ± 0.7 % | FS [1, 4]: 20.46 ± 0.4 % | IVRT [1, 4]: 20.87 ± 0.3 ms | LVIDd [1, 4]: 10.94 ± 0.1 mm | LVIDs [1, 4]: 8.71 ± 0.1 mm | LVPWd [1, 4]: 1.63 ± 0.1 mm | LVPWs [1, 4]: 2.73 ± 0.05 mm | SV [1, 4]: 0.40 ± 0.02 mL | cardiac output [1, 5]: significant improvements | ejection fraction [1, 5]: significant improvements | fractional shortening [1, 5]: significant improvements | stroke volume [1, 5]: significant improvements | Heart rate ([1]; 30 nmol/kg): 348.8 ± 6.7 bpm | Mean blood pressure ([1]; 30 nmol/kg): 109.9 ± 4.0 mmHg | Heart rate ([1]; 100 nmol/kg): 353.2 ± 9.1 bpm | Mean blood pressure ([1]; 100 nmol/kg): 112.6 ± 4.3 mmHg | muscle mass ([1]; at termination): significant increase | Body weight at termination ([1]; compared to MI-Vehicle): weighed significantly more | HR [2, 6]: transient and dose-dependent increase | blood pressure [2, 6]: transient and dose-dependent decrease | Heart rate ([2]; 10 nmol/kg, Day 0): 345.67 ± 5.3 BPM | Mean arterial pressure ([2]; 10 nmol/kg, Day 0): 130.83 ± 2.1 mmHg | Heart rate ([2]; 10 nmol/kg, Day 1): 330.67 ± 6.2 BPM | Mean arterial pressure ([2]; 10 nmol/kg, Day 1): 130.33 ± 1.8 mmHg | Heart rate ([2]; 10 nmol/kg, Day 2): 324.00 ± 5.2 BPM | Mean arterial pressure ([2]; 10 nmol/kg, Day 2): 136.17 ± 2.0 mmHg | Heart rate ([2]; 10 nmol/kg, Day 3): 324.00 ± 5.2 BPM | Mean arterial pressure ([2]; 10 nmol/kg, Day 3): 139.17 ± 2.3 mmHg | Heart rate ([2]; 10 nmol/kg, Day 4): 323.33 ± 7.4 BPM | Mean arterial pressure ([2]; 10 nmol/kg, Day 4): 137.67 ± 2.4 mmHg | Heart rate ([2]; 10 nmol/kg, Day 5): 320.50 ± 7.0 BPM | Mean arterial pressure ([2]; 10 nmol/kg, Day 5): 139.00 ± 2.9 mmHg | Heart rate ([2]; 10 nmol/kg, Day 6): 315.67 ± 7.2 BPM | Mean arterial pressure ([2]; 10 nmol/kg, Day 6): 138.50 ± 2.4 mmHg | Heart rate ([2]; 10 nmol/kg, Day -1): 314.50 ± 4.8 BPM | Mean arterial pressure ([2]; 10 nmol/kg, Day -1): 145.33 ± 3.1 mmHg | Heart rate ([2]; 30 nmol/kg, Day 0): 364.50 ± 5.4 BPM | Mean arterial pressure ([2]; 30 nmol/kg, Day 0): 126.25 ± 2.5 mmHg | Heart rate ([2]; 30 nmol/kg, Day 1): 334.00 ± 4.8 BPM | Mean arterial pressure ([2]; 30 nmol/kg, Day 1): 130.00 ± 2.4 mmHg | Heart rate ([2]; 30 nmol/kg, Day 2): 327.50 ± 2.7 BPM | Mean arterial pressure ([2]; 30 nmol/kg, Day 2): 141.00 ± 3.1 mmHg | Heart rate ([2]; 30 nmol/kg, Day 3): 325.88 ± 4.2 BPM | Mean arterial pressure ([2]; 30 nmol/kg, Day 3): 142.50 ± 2.7 mmHg | Heart rate ([2]; 30 nmol/kg, Day 4): 325.38 ± 6.4 BPM | Mean arterial pressure ([2]; 30 nmol/kg, Day 4): 141.00 ± 3.1 mmHg | Heart rate ([2]; 30 nmol/kg, Day 5): 323.50 ± 5.5 BPM | Mean arterial pressure ([2]; 30 nmol/kg, Day 5): 141.75 ± 2.6 mmHg | Heart rate ([2]; 30 nmol/kg, Day 6): 328.88 ± 5.8 BPM | Mean arterial pressure ([2]; 30 nmol/kg, Day 6): 141.75 ± 2.7 mmHg | Heart rate ([2]; 30 nmol/kg, Day -1): 322.38 ± 5.9 BPM | Mean arterial pressure ([2]; 30 nmol/kg, Day -1): 148.88 ± 3.1 mmHg
